{"source": "patent US20220160779A1", "about": "“COMPOSITION FOR PROMOTING CARTILAGE TISSUE REGENERATION” (National University Corporation Tokyo Medical and Dental …, priority 2019, published 2022)", "key": {"[1]": {"tested_on": "MSCs positive for CD73, CD90, CD105, CD44", "test": "Expression analysis of MSC surface antigens (flow cytometry)", "type": "cell-based, human", "settings": "cultured 2 weeks in the presence of rh Activin A; FIG. 6A", "protocol": "Cells were isolated by treatment with TrypLE (Thermo Fisher Scientific, MA, USA) for 5 minutes and stained with antibodies as described in Tsuji K. et al, Cell Transplant. 2017, 26(6), pp. 1089 to 1102. The surface antigen positive cell fraction was then measured using FACS Verse Flow Cytometer (BD Biosciences). Note that fluorochrome-conjugated antibodies for the analysis of cell surface markers (CD73, CD90, CD105, and CD44) were purchased from BD Biosciences (NJ).\nTo evaluate the effect of activin on the stemness of MSCs, they were cultured for 2 weeks in the presence of rh Activin A, and changes in the expression level of MSC surface antigens were examined by flow cytometric analysis."}, "[2]": {"tested_on": "rheumatoid arthritis-derived synovial cells (mesenchymal cells)", "settings": "cited from earlier work"}, "[3]": {"tested_on": "rat model of total articular cartilage loss", "test": "Full thickness articular cartilage defect model", "type": "in vivo", "settings": "4 weeks after the defect, FIG. 8", "protocol": "Next, in order to verify the regeneration of damaged articular cartilage and the suppression of degenerative degeneration, a model of full thickness articular cartilage defect was prepared to examine the effects of rh Activin A administration. Specifically, a 1.4 mmφ total articular cartilage loss was prepared in the femoral intercondylar region using an airtome, and 180 ng of Activin A (rh Activin A) was injected intra-articularly 1 week later."}, "C57BL/6J mice": {"tested_on": "C57BL/6J mice", "test": "Medial meniscus anterior 1/2 resection model", "type": "in vivo, mouse", "from_the_text": "Twenty male C57BL/6J mice (8 weeks old, weight: about 25 g) were used for this study (5 mice in each group. ORIENTAL YEAST Co., Ltd. Tokyo, Japan). After anesthesia by isoflurane inhalation, a straight incision was made in the left anterior knee, and the anterior central side of the joint capsule was cut. The patellar tendon was then dislocated laterally to expose the anterior corner of the medial meniscus (see Hiyama K. et al, J Orthop Res., 2017, 35(9), pp. 1958 to 1965). The anterior corner of the meniscus was cut and dislocated anteriorly using forceps. The medial meniscus was cut perpendicularly at the medial collateral ligament, and the anterior portion of the medial meniscus was resected in a microscopic operation using a surgical microscope. The skin was closed in layers with non-absorbable sutures. Note that the right knee was subjected to sham surgery. In addition, the mice were kept under a 12-hour light/dark cycle with free movement, free feeding, and drinking water.\nRecombinant human Activin A (42 ng/6 μL in PBS) and/or rh PDGF-AA (174 ng/6 μL in PBS) was injected intra-articularly on postoperative day 7 (see Hoshino T. et al., BMC Musculoskelet Disord., 2018, 19(1): 291). […]\nTissue samples were fixed in 4% paraformaldehyde for 3 to 4 days and subjected to decalcification in 20% ethylenediaminetetraacetic acid (EDTA) solution for 21 days. Then, they were embedded in paraffin wax. The specimens were then cut to a 5 μm thickness in the sagittal plane and stained with safranin O/Fast Green or hematoxylin/eosin (H&E) to histologically evaluate meniscus regeneration.\nA modified Pauli's score system was used to histologically quantify meniscus regeneration (see Hiyama K. et al, J Orthop Res. 2017, 35(9), pp. 1958 to 1965). Histological evaluation was performed by two investigators in a blind manner.\nType I and II collagen immunostaining was performed as described in Tsuji K. et al, Cell Transplant., 2017, 26(6), pp. 1089 to 1102. That is, sections were subjected to deparaffinization with xylene (Wako Pure Chemical Industries, Tokyo, Japan), rehydrated stepwise with alcohol, and saturated with phosphate buffered saline (PBS). For type II collagen staining, the samples were pretreated with 50 mM Tris-HCl buffer (Wako Pure Chemical Industries) containing 0.4 mg/ml Proteinase K (Dako, Agilent Technologies, Santa Clara, Calif., USA) for 10 min. For type I collagen staining, no digestion with Proteinase K was performed.\nNext, the cells were treated with methanol containing 0.3% hydrogen peroxide for 30 minutes to suppress the activity of endogenous peroxidase. As primary antibodies, anti-type I collagen antibody (1:200 dilution; Abcam cat. #ab34712, Cambridge, UK) or anti-type II collagen antibody (1:1000 dilution; Abcam […], Cambridge, UK) were added to the sections and incubated at 4° C. overnight. Then, the sections were rinsed with 0.1% PBS-Triton X-100 (MP Biomedicals Inc., Solon, Ohio, USA) and incubated with secondary antibodies diluted 1:200 [Biotinylated goat-derived anti-rabbit immunoglobulin G (IgG), Vector Laboratories, Burlingame, Calif., USA]. Then, the sections were rinsed, the signals were visualized with Vectastain ABC Reagent (Vector Laboratories), and diaminobenzidine staining (DAB, Vector Laboratories) was applied. In addition, the sections were contrast stained with hematoxylin (Muto Pure Chemicals, Tokyo, Japan)."}}, "data": [{"substance": "Activin A: homodimer of two inhibin βA chains; recombinant human protein purchased from R&D Systems", "values": [{"measurement": "cell population positive for MSC-related antigens (CD73, CD90, CD105, CD44)", "setting": "[1]", "result": "no change"}, {"measurement": "proliferation of rheumatoid arthritis-derived synovial cells", "setting": "[2]", "result": "promotes the proliferation"}, {"measurement": "degenerative degeneration of articular cartilage around the defect site", "setting": "[3]; 180 ng intra-articular, safranin O", "result": "significantly suppressed"}, {"measurement": "chondrogenic differentiation of the formed tissue", "setting": "[3]", "result": "no significant promotion effect"}, {"measurement": "formation of fibrocartilage-like tissue in the articular cartilage defect site", "setting": "[3]; intra-articular 1 week after defect (rh Activin A 180 ng/knee, rrPDGF-AA 900 ng/knee), vs PBS", "result": "promote the formation of fibrocartilage-like tissue"}, {"measurement": "regenerated meniscus tissue (histology)", "setting": "C57BL/6J mice; 42 ng/knee intra-articular on day 7, 10 days after resection, FIG. 7A", "result": "more uniform regenerated meniscus tissue, was induced"}, {"measurement": "staining property of safranin O (proteoglycans)", "setting": "C57BL/6J mice; 10 days after resection, vs control and PDGF groups, FIG. 7A", "result": "enhanced"}, {"measurement": "regenerated meniscus tissue (histology)", "setting": "C57BL/6J mice; 21 days after resection (day 14 after administration), FIG. 7B", "result": "uniform regeneration of cartilage-like tissue was observed"}, {"measurement": "expression of type II collagen", "setting": "C57BL/6J mice; 21 days after resection, FIG. 7B", "result": "Uniform expression"}, {"measurement": "regenerated meniscus tissue (histology)", "setting": "C57BL/6J mice; 56 days after resection (day 49 after administration), FIG. 7C", "result": "formation of bone marrow-like tissue"}, {"measurement": "regenerated meniscus tissue (histology)", "setting": "C57BL/6J mice; 84 days after resection (day 77 after administration), FIG. 7D", "result": "regenerated tissue image very close to that of a normal meniscus"}, {"measurement": "meniscus regeneration process, modified Pauli's score", "setting": "C57BL/6J mice; day 10, 21, 56 and 84 after meniscectomy, FIG. 7E", "result": "significantly accelerated"}, {"measurement": "vascular invasion in the regenerated region", "setting": "C57BL/6J mice; intra-articular on day 7, 10 days after resection, FIG. 7A", "result": "almost completely suppressed"}, {"measurement": "osteoinduction in regenerated tissues", "setting": "C57BL/6J mice; regenerated tissues administered with activin", "result": "no osteoinduction was observed"}]}]}
